# Laboratory results published in US12291533B2, “Substituted fused pyrimidine compounds and uses thereof” (Northwestern University, priority 2017, dated 2025).
# Biological target: T1, glucocerebrosidase (Homo sapiens, UniProt P04062)
# T1 sequence (P04062 40-536): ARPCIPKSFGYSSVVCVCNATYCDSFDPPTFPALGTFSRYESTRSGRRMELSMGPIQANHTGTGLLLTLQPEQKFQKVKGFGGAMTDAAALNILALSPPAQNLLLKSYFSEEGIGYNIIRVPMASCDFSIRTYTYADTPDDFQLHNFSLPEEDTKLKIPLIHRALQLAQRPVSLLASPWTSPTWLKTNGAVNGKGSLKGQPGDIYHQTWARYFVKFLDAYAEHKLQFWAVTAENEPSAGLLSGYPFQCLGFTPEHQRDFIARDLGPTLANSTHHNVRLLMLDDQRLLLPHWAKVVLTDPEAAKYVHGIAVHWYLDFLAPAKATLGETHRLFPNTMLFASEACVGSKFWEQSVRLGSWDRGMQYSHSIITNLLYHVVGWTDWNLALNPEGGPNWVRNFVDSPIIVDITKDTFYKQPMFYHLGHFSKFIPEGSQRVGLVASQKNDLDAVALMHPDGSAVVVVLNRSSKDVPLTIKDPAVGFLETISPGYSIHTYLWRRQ
# Experiment: Glucocerebrosidase activity assay with blue substrate (4MU-Glc)
# Assay type: biochemical
# Description: Example 2—Glucocerebrosidase Activity Assay with Blue Substrate
# The compounds in DMSO solution 0.5 μL/well were transferred to a black 96-well plate (the final titration was 24 nM to 50 μM, 12 concentrations, 2× dilution). 33.5 μL enzyme solution (7.5 nM final concentration) was transferred to the wells. After 5 min of incubation at room temperature, the enzyme reaction was initiated by the addition of 33 μL/well blue substrate. Final concentration of the blue substrate (4MU-Glc) was 1.5 mM. The blue substrate reaction was terminated by the addition of 33 μL/well stop solution (1 M NaOH and 1 M glycine mixture, pH 10) after 30 min of incubation at 37° C. The fluorescence was then measured in the Biotek Synergy H1 multi-mode plate reader with Ex=365 nm and Em=440 nm.
# Additional compounds were synthesized and tested for glucocerebrosidase modulatory activity as described in Example 1 and Example 2.
# [1] = Table 2, additional compounds, tested as described in Example 2
# [2] = Table 1, 7.5 nM enzyme, 1.5 mM 4MU-Glc, 30 min at 37° C.
# [3] = Table 1, 7.5 nM enzyme, 1.5 mM 4MU-Glc, 30 min at 37° C., titration 24 nM to 50 μM
Compound,AC50 [1],Emax [1],Emax [2],AC50 [3]
CN(CCOc1ccc2nccnc2c1)c1nc(-c2cccnc2)nc2ccccc12 [Compound 138],10 µM,875%,–,–
c1ccc(OC2CN(c3nc(-c4cccnc4)nc4ccccc34)C2)cc1 [Compound 165],3.98 µM,305%,–,–
CN(CCOc1ccccc1)c1nc(-c2cncc(C(F)(F)F)c2)nc2ccccc12 [Compound 37],–,–,250%,1.65 µM
CN(CCOc1cccc(CCO)c1)c1nc(-c2cccnc2)nc2ccccc12 [Compound 86],–,–,–,15.8 µM
CN(CCOc1cccc(C(=O)ON2C(=O)CCC2=O)c1)c1nc(-c2cccnc2)nc2ccccc12 [Compound 84],–,–,457%,4.47 µM
CN(CCOc1ccccc1)c1nc(-c2cccnc2)nc2c1cnn2Cc1ccccc1 [Compound 152],2 µM,425%,–,–
CN(CCOc1ccccc1)c1nc(-c2coc3ccccc23)nc2ccccc12 [Compound 49],–,–,120%,2.42 µM
CN(CCOc1ccccc1)c1nc(-c2cccnc2)nc2c1ncn2C [Compound 92],–,–,790%,35.5 µM
CN(CCOc1ccccc1)c1nc(-c2cccnc2)nc2c1CCC2 [Compound 56],–,–,295%,3.3 µM
CN(CCOc1ccccc1)c1nc(-c2cnc3ccccc3c2)nc2ccccc12 [Compound 145],1.6 µM,185%,–,–
c1ccc(O[C@@H]2CCN(c3nc(-c4cccnc4)nc4ccccc34)C2)cc1 [Compound 155],1.78 µM,260%,–,–
CN(CCOc1ccccc1)c1nc(-c2ccnc3ccccc23)nc2ccccc12 [Compound 81],–,–,280%,3.16 µM
CN(CCN1CCc2ccccc2C1)c1nc(-c2cccnc2)nc2c1cnn2C [Compound 101],–,–,197%,79.4 µM
CN(CCOc1ccccc1)c1cc(-c2cccnc2)nc(-c2cccnc2)n1 [Compound 85],–,–,460%,2.24 µM
CN(C[C@H]1COc2ccccc2O1)c1nc(-c2cccnc2)nc2ncccc12 [Compound 11],–,–,–,3.83 µM
CCn1ncc2c(N(C)CCOc3ccc(C#N)cc3)nc(-c3ccsc3)nc21 [Compound 136],2 µM,138%,–,–
Cc1sc2nc(-c3cccnc3)nc(N(C)CCOc3ccccc3)c2c1C [Compound 55],–,–,458%,39.8 µM

Compound,AC50 [1],Emax [1],Emax [2],AC50 [3]
CN(CCOc1ccccc1)c1nc(Nc2ccccc2)nc2ccccc12 [Compound 66],–,–,141%,7.08 µM
c1cncc(-c2nc(N3CCc4cccnc4C3)c3ccccc3n2)c1 [Compound 148],35 µM,285%,–,–
CCCCCCCCCN(C)c1nc(-c2cccnc2)nc2ccccc12 [Compound 179],6.31 µM,118%,–,–
CN(CCOc1ccccc1)c1cc(C2CC[C@H](O)C2)nc(-c2cccnc2)n1 (stereo partly drawn) [Compound 172],8.9 µM,525%,–,–
c1ccc(O[C@@H]2CCCN(c3nc(-c4cccnc4)nc4ccccc34)C2)cc1 [Compound 26],–,–,225%,1.78 µM
CN(CCOc1ccccc1)c1nc(-c2cccnc2)nc2sccc12 [Compound 60],–,–,624%,3.16 µM
CCCn1ncc2c(N(C)CCOc3ccccc3)nc(-c3cccnc3)nc21 [Compound 187],0.8 µM,325%,–,–
CN(CCOc1ccccc1)c1nc(-c2cccnc2)nc2ncccc12 [Compound 62],–,–,–,7.08 µM
"CN(C[C@H]1COc2ccccc2O1)c1nc(-c2cccnc2)nc2ccccc12 [Compound 9, (S)—N-((2,3-dihydrobenzo[b][1,4]dioxin-2-yl)methyl)-N-methyl-2-(pyridin-3-yl)quinazolin-4-amine]",–,–,645%,1.49 µM
Cn1ncc2c(NCCOC3CCCCC3)nc(-c3cccnc3)nc21 [Compound 91],–,–,322%,44.7 µM
CN(CCOc1ccccc1)c1nc(-c2ccc(F)nc2)nc2ccccc12 [Compound 36],–,–,220%,1.58 µM
CCc1cncc(-c2nc(N(C)CCOc3ccccc3)c3ccccc3n2)c1 [Compound 144],3.16 µM,700%,–,–
CN(CCOc1ccccc1)c1nc(-c2cccnc2)nc2c(F)cccc12 [Compound 38],–,–,700%,2.82 µM
CN(Cc1ccc2ccccc2n1)c1nc(-c2cccnc2)nc2c1cnn2C [Compound 104],–,–,425%,6.31 µM
CN(CCOc1ccc(C(=O)ON2C(=O)CCC2=O)cc1)c1nc(-c2cccnc2)nc2ccccc12 [Compound 83],–,–,230%,3.98 µM
Cc1cccc(OCCN(C)c2nc(-c3cccnc3)nc3ccccc23)c1 [Compound 23],–,–,500%,3.55 µM
